{
  "source": "patent US10392368B2",
  "about": "“Pyrazolo and triazolo bicyclic compounds as JAK kinase inhibitors” (THERAVANCE BIOPHARMA R&D IP, LLC, priority 2017, dated 2019)",
  "key": {"JAK1": {"target": "T1, JAK1 (Homo sapiens, UniProt P23458)", "T1 construct": "GST; purchased Life Technologies", "T1 sequence (P23458 whole entry)": "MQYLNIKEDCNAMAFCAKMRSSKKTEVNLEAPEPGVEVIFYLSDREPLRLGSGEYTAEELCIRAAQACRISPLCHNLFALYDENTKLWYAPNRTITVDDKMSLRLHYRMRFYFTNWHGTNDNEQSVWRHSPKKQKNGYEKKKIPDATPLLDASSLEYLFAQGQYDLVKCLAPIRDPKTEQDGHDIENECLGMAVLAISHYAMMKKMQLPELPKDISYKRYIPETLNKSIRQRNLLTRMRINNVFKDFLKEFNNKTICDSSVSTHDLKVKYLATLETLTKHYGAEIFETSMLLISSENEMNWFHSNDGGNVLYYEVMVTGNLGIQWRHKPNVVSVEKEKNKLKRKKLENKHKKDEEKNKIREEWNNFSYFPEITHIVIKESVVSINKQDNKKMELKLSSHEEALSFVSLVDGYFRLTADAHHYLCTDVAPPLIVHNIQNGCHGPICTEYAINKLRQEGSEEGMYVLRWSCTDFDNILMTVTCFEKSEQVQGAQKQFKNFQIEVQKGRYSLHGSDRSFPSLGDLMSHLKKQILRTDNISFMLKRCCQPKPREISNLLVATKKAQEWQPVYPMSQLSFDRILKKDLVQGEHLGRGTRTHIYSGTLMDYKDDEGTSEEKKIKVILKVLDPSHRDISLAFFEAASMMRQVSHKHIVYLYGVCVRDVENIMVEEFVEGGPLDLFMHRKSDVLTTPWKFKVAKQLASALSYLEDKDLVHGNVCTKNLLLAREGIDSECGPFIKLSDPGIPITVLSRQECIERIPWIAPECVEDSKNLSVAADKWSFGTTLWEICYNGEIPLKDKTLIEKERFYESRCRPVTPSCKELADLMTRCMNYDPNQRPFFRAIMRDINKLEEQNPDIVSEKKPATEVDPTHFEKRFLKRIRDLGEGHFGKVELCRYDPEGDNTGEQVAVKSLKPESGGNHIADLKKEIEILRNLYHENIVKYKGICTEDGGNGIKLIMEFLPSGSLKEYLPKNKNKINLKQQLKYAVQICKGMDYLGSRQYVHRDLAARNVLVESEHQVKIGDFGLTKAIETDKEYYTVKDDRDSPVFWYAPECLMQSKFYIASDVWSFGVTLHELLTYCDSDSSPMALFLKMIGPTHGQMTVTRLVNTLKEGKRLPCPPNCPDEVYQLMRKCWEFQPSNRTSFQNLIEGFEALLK", "test": "Biochemical JAK1 kinase assay (LanthaScreen)", "conditions": "read-out: JAK 1 (pKi) (converted)", "method_in_brief": "(§1)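 TR-FRET read-out: terbium anti-pSTAT1 (pTyr701) antibody, 2 nM, with 10 mM EDTA quench, emission ratio 520/495 nm. GST-JAK phosphorylates GFP-STAT1 peptide for 1 h at ambient temperature after 1 h compound pre-incubation. pIC50 from dose-response converted to pKi by Cheng-Prusoff.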"}, "JAK3": {"target": "T2, JAK3 (Homo sapiens, UniProt P52333)", "T2 sequence (P52333 1-1124)": "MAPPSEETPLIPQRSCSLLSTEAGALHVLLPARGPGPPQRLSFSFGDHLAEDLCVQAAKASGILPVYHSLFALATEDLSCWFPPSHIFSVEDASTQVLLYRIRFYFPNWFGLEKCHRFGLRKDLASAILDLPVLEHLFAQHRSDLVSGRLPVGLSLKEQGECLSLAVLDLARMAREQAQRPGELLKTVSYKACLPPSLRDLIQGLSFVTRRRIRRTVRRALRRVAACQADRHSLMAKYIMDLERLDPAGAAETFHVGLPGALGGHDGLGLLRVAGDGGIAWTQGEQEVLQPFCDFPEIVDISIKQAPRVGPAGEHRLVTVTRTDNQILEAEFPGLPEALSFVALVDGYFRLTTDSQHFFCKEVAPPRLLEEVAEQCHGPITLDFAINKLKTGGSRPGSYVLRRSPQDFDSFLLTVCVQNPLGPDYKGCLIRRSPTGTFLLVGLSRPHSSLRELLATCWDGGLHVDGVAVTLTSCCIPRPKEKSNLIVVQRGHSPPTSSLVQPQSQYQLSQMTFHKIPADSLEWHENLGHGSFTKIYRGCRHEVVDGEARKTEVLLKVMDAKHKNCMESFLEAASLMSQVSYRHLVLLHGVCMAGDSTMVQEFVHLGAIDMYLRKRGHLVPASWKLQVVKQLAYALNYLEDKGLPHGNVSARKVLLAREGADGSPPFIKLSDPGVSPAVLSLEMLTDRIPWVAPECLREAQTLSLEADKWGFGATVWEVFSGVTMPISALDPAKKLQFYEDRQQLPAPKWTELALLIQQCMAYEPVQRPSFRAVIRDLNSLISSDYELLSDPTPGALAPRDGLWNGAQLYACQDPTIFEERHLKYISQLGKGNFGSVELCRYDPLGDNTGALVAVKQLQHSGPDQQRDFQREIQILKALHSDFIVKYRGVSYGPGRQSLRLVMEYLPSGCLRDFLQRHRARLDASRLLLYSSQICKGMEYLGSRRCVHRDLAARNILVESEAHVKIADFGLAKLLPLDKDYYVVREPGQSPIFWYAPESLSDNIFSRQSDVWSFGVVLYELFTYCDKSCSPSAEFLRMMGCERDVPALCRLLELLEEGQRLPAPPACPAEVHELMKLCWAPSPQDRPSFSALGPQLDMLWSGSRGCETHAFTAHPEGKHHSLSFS", "test": "Biochemical JAK3 kinase assay (LanthaScreen)", "design": "GST; purchased Life Technologies", "conditions": "for Ki: read-out: JAK 3 (pKi) (converted); for JAK3 (pKi)-JAK1 (pKi): selectivity JAK3 over JAK1, difference of pKi", "method_in_brief": "as §1"}, "[1]": {"tested_on": "IL-2 stimulated pSTAT5 in Tall-1 T cells", "test": "Cellular JAK3 potency assay: inhibition of IL-2 stimulated pSTAT5 in Tall-1 T cells", "type": "cell-based, human", "conditions": "Homo sapiens, TALL-1, IL-2 stimulated pSTAT5, Tall-1 T cells; read-out: Tall-1 (pIC50) (converted)", "method_in_brief": "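Tall-1 human T cells (45,000/well) in phenol red-free DMEM with 10% FBS were preincubated with compound 1 h at 37 °C, then stimulated with IL-2 (final 300 ng/ml) for 30 min. Lysate pSTAT5 read by AlphaLisa; IC50 from inhibition curves, reported as pIC50 (mean±SD).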"}},
  "data": [
    {"smiles": "CN(C)C/C=C/C(=O)N1CC[C@@H]1COc1cc(-c2ccc(O)cc2)cc2[nH]ncc12", "note": "[Compound 12-22]", "values": [
      {"measurement": "Ki", "setting": "JAK1", "value": "> 100", "unit": "nM"},
      {"measurement": "Ki", "setting": "JAK3", "value": "0.1 to 1", "unit": "nM"},
      {"measurement": "JAK3 (pKi)-JAK1 (pKi)", "setting": "JAK3", "value": "A (a value of 3 or above)"},
      {"measurement": "IC50", "setting": "[1]", "value": "200 to 1000", "unit": "nM"}
    ]},
    {"smiles": "C=CC(=O)N1CC[C@@H]1COc1cc(-c2ccc(O)cc2)cc2[nH]ncc12", "note": "[Compound 12-23]", "values": [
      {"measurement": "Ki", "setting": "JAK1", "value": "> 100", "unit": "nM"},
      {"measurement": "Ki", "setting": "JAK3", "value": "0.1 to 1", "unit": "nM"},
      {"measurement": "JAK3 (pKi)-JAK1 (pKi)", "setting": "JAK3", "value": "A (a value of 3 or above)"},
      {"measurement": "IC50", "setting": "[1]", "value": "31.6 to 200", "unit": "nM"}
    ]},
    {"smiles": "CN(C)C/C=C/C(=O)N1CC[C@H]1COc1cc(-c2ccc(O)cc2)cc2[nH]ncc12", "note": "[Compound 12-24]", "values": [
      {"measurement": "Ki", "setting": "JAK1", "value": "> 100", "unit": "nM"},
      {"measurement": "Ki", "setting": "JAK3", "value": "0.1 to 1", "unit": "nM"},
      {"measurement": "JAK3 (pKi)-JAK1 (pKi)", "setting": "JAK3", "value": "A (a value of 3 or above)"},
      {"measurement": "IC50", "setting": "[1]", "value": "200 to 1000", "unit": "nM"}
    ]},
    {"smiles": "C=CC(=O)N1CC[C@H]1COc1cc(-c2ccc(O)cc2)cc2[nH]ncc12", "note": "[Compound 12-25]", "values": [
      {"measurement": "Ki", "setting": "JAK1", "value": "> 100", "unit": "nM"},
      {"measurement": "Ki", "setting": "JAK3", "value": "0.1 to 1", "unit": "nM"},
      {"measurement": "JAK3 (pKi)-JAK1 (pKi)", "setting": "JAK3", "value": "B (a value of 2.3 to 3)"},
      {"measurement": "IC50", "setting": "[1]", "value": "200 to 1000", "unit": "nM"}
    ]},
    {"smiles": "C=CC(=O)N1CC(F)(C2(Oc3cc(-c4ccc(O)cc4)cc4[nH]ncc34)CC2)C1", "note": "[Compound 12-37]", "values": [
      {"measurement": "Ki", "setting": "JAK1", "value": "10 to 100", "unit": "nM"},
      {"measurement": "Ki", "setting": "JAK3", "value": "0.1 to 1", "unit": "nM"},
      {"measurement": "JAK3 (pKi)-JAK1 (pKi)", "setting": "JAK3", "value": "B (a value of 2.3 to 3)"},
      {"measurement": "IC50", "setting": "[1]", "value": "31.6 to 200", "unit": "nM"}
    ]},
    {"smiles": "C=CC(=O)N1CCCC(C(=O)Nc2cc(-c3ccc(O)cc3)cc3[nH]ncc23)C1", "note": "(stereo not drawn) [Compound 12-40]", "values": [
      {"measurement": "Ki", "setting": "JAK1", "value": "> 100", "unit": "nM"},
      {"measurement": "Ki", "setting": "JAK3", "value": "0.1 to 1", "unit": "nM"},
      {"measurement": "JAK3 (pKi)-JAK1 (pKi)", "setting": "JAK3", "value": "B (a value of 2.3 to 3)"},
      {"measurement": "IC50", "setting": "[1]", "value": "200 to 1000", "unit": "nM"}
    ]},
    {"smiles": "CN(C)C/C=C/C(=O)N1CC2(CC(Oc3cc(-c4ccc(O)cc4)cc4[nH]ncc34)C2)C1", "note": "[Compound 12-52]", "values": [
      {"measurement": "Ki", "setting": "JAK1", "value": "10 to 100", "unit": "nM"},
      {"measurement": "Ki", "setting": "JAK3", "value": "0.1 to 1", "unit": "nM"},
      {"measurement": "JAK3 (pKi)-JAK1 (pKi)", "setting": "JAK3", "value": "B (a value of 2.3 to 3)"},
      {"measurement": "IC50", "setting": "[1]", "value": "200 to 1000", "unit": "nM"}
    ]},
    {"smiles": "C=CC(=O)N1CCC[C@@H](C(=O)Nc2cc(-c3ccc(O)cc3)cc3[nH]ncc23)C1", "note": "[Compound 12-55]", "values": [
      {"measurement": "Ki", "setting": "JAK1", "value": "> 100", "unit": "nM"},
      {"measurement": "Ki", "setting": "JAK3", "value": "< 0.1", "unit": "nM"},
      {"measurement": "JAK3 (pKi)-JAK1 (pKi)", "setting": "JAK3", "value": "A (a value of 3 or above)"},
      {"measurement": "IC50", "setting": "[1]", "value": "31.6 to 200", "unit": "nM"}
    ]},
    {"smiles": "C=CC(=O)N1CCC[C@H](C(=O)Nc2cc(-c3ccc(O)cc3)cc3[nH]ncc23)C1", "note": "[Compound 12-56]", "values": [
      {"measurement": "Ki", "setting": "JAK1", "value": "> 100", "unit": "nM"},
      {"measurement": "Ki", "setting": "JAK3", "value": "< 0.1", "unit": "nM"},
      {"measurement": "JAK3 (pKi)-JAK1 (pKi)", "setting": "JAK3", "value": "A (a value of 3 or above)"},
      {"measurement": "IC50", "setting": "[1]", "value": "31.6 to 200", "unit": "nM"}
    ]},
    {"smiles": "C=CC(=O)N1CCC(C(=O)Nc2cc(-c3ccc(O)cc3)cc3[nH]ncc23)CC1", "note": "[Compound 12-59]", "values": [
      {"measurement": "Ki", "setting": "JAK1", "value": "> 100", "unit": "nM"},
      {"measurement": "Ki", "setting": "JAK3", "value": "< 0.1", "unit": "nM"},
      {"measurement": "JAK3 (pKi)-JAK1 (pKi)", "setting": "JAK3", "value": "A (a value of 3 or above)"},
      {"measurement": "IC50", "setting": "[1]", "value": "31.6 to 200", "unit": "nM"}
    ]},
    {"smiles": "C=CC(=O)N1C[C@H](C(=O)Nc2cc(-c3ccc(O)cc3)cc3[nH]ncc23)OC(C)(C)C1", "note": "[Compound 12-62]", "values": [
      {"measurement": "Ki", "setting": "JAK1", "value": "> 100", "unit": "nM"},
      {"measurement": "Ki", "setting": "JAK3", "value": "< 0.1", "unit": "nM"},
      {"measurement": "JAK3 (pKi)-JAK1 (pKi)", "setting": "JAK3", "value": "A (a value of 3 or above)"},
      {"measurement": "IC50", "setting": "[1]", "value": "31.6 to 200", "unit": "nM"}
    ]},
    {"smiles": "C=CC(=O)N1CC[C@H]1C(=O)Nc1cc(-c2ccc(O)cc2)cc2[nH]ncc12", "note": "[Compound 12-69]", "values": [
      {"measurement": "Ki", "setting": "JAK1", "value": "> 100", "unit": "nM"},
      {"measurement": "Ki", "setting": "JAK3", "value": "< 0.1", "unit": "nM"},
      {"measurement": "JAK3 (pKi)-JAK1 (pKi)", "setting": "JAK3", "value": "A (a value of 3 or above)"},
      {"measurement": "IC50", "setting": "[1]", "value": "31.6 to 200", "unit": "nM"}
    ]}
  ]
}
